According to the supplement of paper PMC11061612:

How the values were obtained:
U-698-M [1] = assay: combination Emax (second highest fraction inhibited in the dose matrix, 72 h); higher = more inhibition; settings: B-Cell Non-Hodgkin's Lymphoma
Summary of the method: (§1)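 Cell lines grown in DMEM/F12 or RPMI with 10% FBS were plated in 1536-well plates and held 24 hours at 37°C, 5% CO2 before 72 hours of exposure to two-drug dose matrices, with DMSO typically at 0.2%. CellTiter-Glo 2.0 luminescence gave viability, which was converted to inhibition. Vehicle wells were set to 0 and blank wells to 1. Combination Emax is the second-highest inhibition in the matrix, and Bliss excess is the observed combination effect minus the expected EA + EB − EA·EB, where EA and EB are the single-agent effects.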

U-698-M [2] = assay: Bliss excess, mean over the matrix (fraction); higher = more synergy; settings: U-[…], B-Cell Non-Hodgkin's Lymphoma
Summary of the method: as §1

[3] = first compound max 1 µM, partner max 10 µM, 7x7
[4] = first compound max 10 µM, partner max 10 µM, 7x7
[5] = first compound max 1 µM, partner max 1 µM, 7x7
[6] = first compound max 1 µM, partner max 3 µM, 7x7, may be a limit of the assay
[7] = first compound max 1 µM, partner max 3 µM, 7x7
[8] = first compound max 1 µM, partner max 1 µM
[9] = first compound max 1 µM, partner max 10 µM
[10] = first compound max 1 µM, partner max 0.3 µM
[11] = first compound max 10 µM, partner max 5 µM, 7x7
[12] = first compound max 3 µM, partner max 3 µM
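For Bliss excess, mean over the matrix in this document: after 72 h of two-drug dosing.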

## CCN(CCO)CCCOc1ccc2c(Nc3cc(CC(=O)Nc4cccc(F)c4)[nH]n3)ncnc2c1 [AZD2811] + C[C@@H]1COCCN1C2=NC(=NC(=C2)C3(CC3)[S@](=N)(=O)C)C4=C5C=CNC5=NC=C4 [AZD6738]
U-698-M [1]; [3]
  combination Emax: 0.956
U-698-M [2]; [3]
  Bliss excess: 0.0016

## CS(=O)(=O)CCNCc1ccc(-c2ccc3ncnc(Nc4ccc(OCc5cccc(F)c5)c(Cl)c4)c3c2)o1 [Lapatinib] + C[C@@H](Oc1cc(-c2cnn(C3CCNCC3)c2)cnc1N)c1c(Cl)ccc(F)c1Cl [Crizotinib]
U-698-M [1]; [4]
  combination Emax: 0.934
U-698-M [2]; [4]
  Bliss excess: -0.0653

## Cc1c2c(nn1C)CSCc1cc(n(C)n1)CSc1cc(c3ccccc3c1)OCCCc1c(C(=O)O)n(C)c3c-2c(Cl)ccc13 [AZD5991] + CCN(CCO)CCCOc1ccc2c(Nc3cc(CC(=O)Nc4cccc(F)c4)[nH]n3)ncnc2c1 [AZD2811]
U-698-M [1]; first compound max 1 µM, partner max 1 µM, 7x7, may be a limit of the assay
  combination Emax: 1
U-698-M [2]; [5]
  Bliss excess: 0.0024

## CC1(C)CCC(CN2CCN(c3ccc(C(=O)NS(=O)(=O)c4ccc(NCC5CCOCC5)c([N+](=O)[O-])c4)c(Oc4cnc5[nH]ccc5c4)c3)CC2)=C(c2ccc(Cl)cc2)C1 [Venetoclax] + CN(C)CCCOc1ccc(-c2ccc3ncc4c(c3c2)n(C2CCOCC2)c(=O)n4C)cn1 [AZD0156]
U-698-M [1]; [5]
  combination Emax: 0.72
U-698-M [2]; [5]
  Bliss excess: 0.0133

## Cc1c2c(nn1C)CSCc1cc(n(C)n1)CSc1cc(c3ccccc3c1)OCCCc1c(C(=O)O)n(C)c3c-2c(Cl)ccc13 [AZD5991] + C[C@@H](Nc1cc(F)cc(F)c1)c1cc(C(=O)N(C)C)cc2c(=O)cc(N3CCOCC3)oc12 [AZD8186]
U-698-M [1]; [6]
  combination Emax: 1
U-698-M [2]; [7]
  Bliss excess: -0.0258

## COc1cccc(OCCCN)c1-c1cc(Nc2cnc(C#N)cn2)n[nH]1 [Prexasertib] + C=CCn1c(=O)c2cnc(Nc3ccc(N4CCN(C)CC4)cc3)nc2n1-c1cccc(C(C)(C)O)n1 [AZD1775]
U-698-M [1]; first compound max 1 µM, partner max 1 µM, may be a limit of the assay
  combination Emax: 1
U-698-M [2]; [8]
  Bliss excess: 0.0762

## CN(CCO)CC[C@H](CSc1ccccc1)Nc1ccc(S(=O)(=O)NC(=O)c2ccc(N3CCC([C@@H](O)c4ccccc4-c4ccc(Cl)cc4)CC3)cc2)cc1S(=O)(=O)C(F)(F)F [AZD4320] + Cn1cnc2c(F)c(Nc3ccc(Br)cc3Cl)c(C(=O)NOCCO)cc21 [Selumetinib]
U-698-M [1]; [7]
  combination Emax: 0.42
U-698-M [2]; [7]
  Bliss excess: 0.058

## CC(=O)Nc1cccc(-n2c(=O)n(C3CC3)c(=O)c3c(Nc4ccc(I)cc4F)n(C)c(=O)c(C)c32)c1 [Trametinib] + Cc1nc(-c2cn3c(n2)-c2ccc(-c4cnn(C(C)(C)C(N)=O)c4)cc2OCC3)n(C(C)C)n1 [Taselisib]
U-698-M [1]; [3]
  combination Emax: 0.416
U-698-M [2]; [3]
  Bliss excess: -0.0211

## CN(CCO)CC[C@H](CSc1ccccc1)Nc1ccc(S(=O)(=O)NC(=O)c2ccc(N3CCC([C@@H](O)c4ccccc4-c4ccc(Cl)cc4)CC3)cc2)cc1S(=O)(=O)C(F)(F)F [AZD4320] + C=CCn1c(=O)c2cnc(Nc3ccc(N4CCN(C)CC4)cc3)nc2n1-c1cccc(C(C)(C)O)n1 [AZD1775]
U-698-M [1]; [8]
  combination Emax: 0.931
U-698-M [2]; [8]
  Bliss excess: -0.0221

## CC1(C)CCC(CN2CCN(c3ccc(C(=O)NS(=O)(=O)c4ccc(NCC5CCOCC5)c([N+](=O)[O-])c4)c(Oc4cnc5[nH]ccc5c4)c3)CC2)=C(c2ccc(Cl)cc2)C1 [Venetoclax] + CCN(CCO)CCCOc1ccc2c(Nc3cc(CC(=O)Nc4cccc(F)c4)[nH]n3)ncnc2c1 [AZD2811]
U-698-M [1]; [5]
  combination Emax: 0.6
U-698-M [2]; [5]
  Bliss excess: -0.0213

## C=CCn1c(=O)c2cnc(Nc3ccc(N4CCN(C)CC4)cc3)nc2n1-c1cccc(C(C)(C)O)n1 [AZD1775] + O=C(c1cc(Cc2n[nH]c(=O)c3ccccc23)ccc1F)N1CCN(C(=O)C2CC2)CC1 [Olaparib]
U-698-M [1]; [9]
  combination Emax: 0.967
U-698-M [2]; [9]
  Bliss excess: -0.0077

## CC1(C)CCC(CN2CCN(c3ccc(C(=O)NS(=O)(=O)c4ccc(NCC5CCOCC5)c([N+](=O)[O-])c4)c(Oc4cnc5[nH]ccc5c4)c3)CC2)=C(c2ccc(Cl)cc2)C1 [Venetoclax] + C[C@@H]1COCCN1C2=NC(=NC(=C2)C3(CC3)[S@](=N)(=O)C)C4=C5C=CNC5=NC=C4 [AZD6738]
U-698-M [1]; [3]
  combination Emax: 0.86
U-698-M [2]; [3]
  Bliss excess: -0.0392

## CN(CCO)CC[C@H](CSc1ccccc1)Nc1ccc(S(=O)(=O)NC(=O)c2ccc(N3CCC([C@@H](O)c4ccccc4-c4ccc(Cl)cc4)CC3)cc2)cc1S(=O)(=O)C(F)(F)F [AZD4320] + CN(C)CCCOc1ccc(-c2ccc3ncc4c(c3c2)n(C2CCOCC2)c(=O)n4C)cn1 [AZD0156]
U-698-M [1]; [5]
  combination Emax: 0.183
U-698-M [2]; [5]
  Bliss excess: -0.0291

## COc1nnc2ccc(N3CCC(c4ccc(OCCN5CCN(C)C(=O)[C@H]5C)cc4)CC3)nn12 [AZD5153] + CC1(C)CCC(CN2CCN(c3ccc(C(=O)NS(=O)(=O)c4ccc(NCC5CCOCC5)c([N+](=O)[O-])c4)c(Oc4cnc5[nH]ccc5c4)c3)CC2)=C(c2ccc(Cl)cc2)C1 [Venetoclax]
U-698-M [1]; [5]
  combination Emax: 0.671
U-698-M [2]; [5]
  Bliss excess: -0.0463

## Cc1c2c(nn1C)CSCc1cc(n(C)n1)CSc1cc(c3ccccc3c1)OCCCc1c(C(=O)O)n(C)c3c-2c(Cl)ccc13 [AZD5991] + C[C@@H]1COCCN1C2=NC(=NC(=C2)C3(CC3)[S@](=N)(=O)C)C4=C5C=CNC5=NC=C4 [AZD6738]
U-698-M [1]; first compound max 1 µM, partner max 10 µM, 7x7, may be a limit of the assay
  combination Emax: 1
U-698-M [2]; [3]
  Bliss excess: -0.0194

## Cc1cc2ncnn2cc1Nc1ncc2c(n1)n(C1CCOCC1)c(=O)n2C [AZD7648] + COc1cc([C@@H]2c3cc4c(cc3[C@@H](O[C@@H]3O[C@@H]5CO[C@@H](C)O[C@H]5[C@H](O)[C@H]3O)[C@H]3COC(=O)[C@H]23)OCO4)cc(OC)c1O [Etoposide]
U-698-M [1]; [4]
  combination Emax: 0.823
U-698-M [2]; [4]
  Bliss excess: 0.0866

## CN(C)CCCOc1ccc(-c2ccc3ncc4c(c3c2)n(C2CCOCC2)c(=O)n4C)cn1 [AZD0156] + CCN(CCO)CCCOc1ccc2c(Nc3cc(CC(=O)Nc4cccc(F)c4)[nH]n3)ncnc2c1 [AZD2811]
U-698-M [1]; [5]
  combination Emax: 0.168
U-698-M [2]; [5]
  Bliss excess: -0.014

## CN(C)CCCOc1ccc(-c2ccc3ncc4c(c3c2)n(C2CCOCC2)c(=O)n4C)cn1 [AZD0156] + C=CCn1c(=O)c2cnc(Nc3ccc(N4CCN(C)CC4)cc3)nc2n1-c1cccc(C(C)(C)O)n1 [AZD1775]
U-698-M [1]; [8]
  combination Emax: 0.984
U-698-M [2]; [8]
  Bliss excess: -0.0399

## NC1(C(=O)N[C@@H](CCO)c2ccc(Cl)cc2)CCN(c2ncnc3[nH]ccc23)CC1 [Capivasertib] + C[C@@H]1COCCN1C2=NC(=NC(=C2)C3(CC3)[S@](=N)(=O)C)C4=C5C=CNC5=NC=C4 [AZD6738]
U-698-M [1]; [4]
  combination Emax: 0.909
U-698-M [2]; [4]
  Bliss excess: -0.0275

## CC1(C)CCC(CN2CCN(c3ccc(C(=O)NS(=O)(=O)c4ccc(NCC5CCOCC5)c([N+](=O)[O-])c4)c(Oc4cnc5[nH]ccc5c4)c3)CC2)=C(c2ccc(Cl)cc2)C1 [Venetoclax] + Cn1cnc2c(F)c(Nc3ccc(Br)cc3Cl)c(C(=O)NOCCO)cc21 [Selumetinib]
U-698-M [1]; [7]
  combination Emax: 0.408
U-698-M [2]; [7]
  Bliss excess: -0.0473

## NC1(C(=O)N[C@@H](CCO)c2ccc(Cl)cc2)CCN(c2ncnc3[nH]ccc23)CC1 [Capivasertib] + CC(=O)c1c(C)c2cnc(Nc3ccc(N4CCNCC4)cn3)nc2n(C2CCCC2)c1=O [Palbociclib]
U-698-M [1]; [4]
  combination Emax: 0.532
U-698-M [2]; [4]
  Bliss excess: 0.0018

## CN(CCO)CC[C@H](CSc1ccccc1)Nc1ccc(S(=O)(=O)NC(=O)c2ccc(N3CCC([C@@H](O)c4ccccc4-c4ccc(Cl)cc4)CC3)cc2)cc1S(=O)(=O)C(F)(F)F [AZD4320] + C1CN(CCC1(C(=O)N[C@@H](CCO)C2=CC=C(C=C2)Cl)N)C3=NC=NC4=C3C=CN4 [Capivasertib]
U-698-M [1]; [7]
  combination Emax: 0.272
U-698-M [2]; [7]
  Bliss excess: 0.0056

## N#Cc1cnc(Nc2cc(NC[C@H]3CNCCO3)c(C(F)(F)F)cn2)cn1 [SRA737] + C=CCn1c(=O)c2cnc(Nc3ccc(N4CCN(C)CC4)cc3)nc2n1-c1cccc(C(C)(C)O)n1 [AZD1775]
U-698-M [1]; first compound max 10 µM, partner max 1 µM, may be a limit of the assay
  combination Emax: 1
U-698-M [2]; first compound max 10 µM, partner max 1 µM
  Bliss excess: 0.0975

## C=CCn1c(=O)c2cnc(Nc3ccc(N4CCN(C)CC4)cc3)nc2n1-c1cccc(C(C)(C)O)n1 [AZD1775] + Nc1ccn([C@@H]2O[C@H](CO)[C@@H](O)C2(F)F)c(=O)n1 [Gemcitabine]
U-698-M [1]; [10]
  combination Emax: 0.956
U-698-M [2]; [10]
  Bliss excess: 0.116

## Cc1c2c(nn1C)CSCc1cc(n(C)n1)CSc1cc(c3ccccc3c1)OCCCc1c(C(=O)O)n(C)c3c-2c(Cl)ccc13 [AZD5991] + CC(=O)O[C@H]1C(=O)[C@@]2(C)[C@H]([C@H](OC(=O)c3ccccc3)[C@]3(O)C[C@H](OC(=O)[C@H](O)[C@@H](NC(=O)c4ccccc4)c4ccccc4)C(C)=C1C3(C)C)[C@]1(OC(C)=O)CO[C@@H]1C[C@@H]2O [Paclitaxel]
U-698-M [1]; [6]
  combination Emax: 1
U-698-M [2]; [7]
  Bliss excess: -0.0123

## Cc1nc(-c2cn3c(n2)-c2ccc(-c4cnn(C(C)(C)C(N)=O)c4)cc2OCC3)n(C(C)C)n1 [Taselisib] + O=C(Nc1ccc2[nH]nc(-c3ccncc3)c2c1)[C@@H]1CCN(CC(=O)N2CCN(c3ccc(-c4ncccn4)cc3)CC2)C1 [SCH772984]
U-698-M [1]; [11]
  combination Emax: 0.606
U-698-M [2]; [11]
  Bliss excess: -0.0189

## C=CCn1c(=O)c2cnc(Nc3ccc(N4CCN(C)CC4)cc3)nc2n1-c1cccc(C(C)(C)O)n1 [AZD1775] + C1CN(CCC1(C(=O)N[C@@H](CCO)C2=CC=C(C=C2)Cl)N)C3=NC=NC4=C3C=CN4 [Capivasertib]
U-698-M [1]; [12]
  combination Emax: 0.959
U-698-M [2]; [12]
  Bliss excess: -0.0654
